In paper PMC9229263, “Pyrazolo[4,3-e]tetrazolo[1,5-b][1,2,4]triazine Sulfonamides as Novel Potential Anticancer Agents: Cytotoxic and Genotoxic Activities In Vitro” (Molecules, 2022):
Where two headings read alike, the source gives them in different places.

Legend:
[1] = system: BxPC-3; set-up: method as in PMID 20021699, PMID 24172061; conditions: cited from earlier work
[2] = system: HCT 116; conditions: cited from earlier work
[3] = system: HT-29 and DLD-1; conditions: HT-29 and DLD-1, range; cited from earlier work
[4] = system: HeLa; test: MTT assay, HeLa; assay type: cell-based; conditions: Homo sapiens, 72 h, 95% confidence intervals in parentheses
Excerpt: (§1) In order to characterize the effect of tested compounds on cell viability, the MTT test was used. MTT microplate assay enables evaluation of cell viability via measuring cell metabolic activity represented as an ability to incorporate and reduce yellow tetrazolium salt to the violet-blue formazan compounds via the activity of mitochondrial succinate dehydrogenase enzyme. The number of metabolically active cells positively correlates with the amount of reduced tetrazolium salt. The absorbance of formazan solution obtained after solubilizing formazan crystals in an organic solvent, e.g., DMSO, can be measured spectrophotometrically at 570 nm.
(§2) The suspension of 8–10 × 10^3 (adherent cells) and 8 × 10^4 (PBMCs) cells in 200 µL and 100 µL medium, respectively, was transferred to each well of 96-well microplate. Plates were incubated for 24 h in controlled conditions (5% CO2; 37 °C) to ensure cell growth. Subsequently, the medium was replaced, and the cells were exposed to tested compounds in a wide range of concentrations (0.1–6 µM). Before investigated compounds were diluted in a culture medium, they had been diluted in DMSO in the final concentration of <0.5% v/v, which were not toxic to the cells. The experimental design included blanks (wells without cells) as well as non-treated control cells. Following the 72 h incubation period, a volume of 20 µL of fresh tetrazolium salt solution (5 mg/mL in PBS) was added per well. In the case of adherent cancer cells, after 3 h of incubation (conditions as previously), the solutions were replaced by 100 µL of DMSO to dissolve formazan complexes. In contrast, the solutions in plates containing PBMCs were not removed and a 100 µL mixture of 50% DMF and 20% SDS was added to each well for the next 24 h. Absorbance was measured via spectrophotometer (microplate reader Power Wave XS BioTek Instruments, Inc., Winooski, VT, USA) at 570 nm. […]

[5] = system: HCT 116; test: MTT assay, HCT 116; assay type: cell-based; conditions: Homo sapiens; HCT 116, MTT, 72 h; 95% confidence intervals in parentheses
Excerpt: as §1, §2

[6] = system: PC-3; test: MTT assay, PC-3; assay type: cell-based; conditions: Homo sapiens; PC-3, MTT, 72 h; 95% confidence intervals in parentheses
Excerpt: as §1, §2

[7] = system: BxPC-3; test: MTT assay, BxPC-3; assay type: cell-based; conditions: Homo sapiens; BxPC-3, MTT, 72 h; 95% confidence intervals in parentheses
Excerpt: as §1, §2

[8] = system: Hs27; test: MTT assay, Hs27 fibroblasts (normal); assay type: cell-based; conditions: Homo sapiens, 72 h, 95% confidence intervals in parentheses
Excerpt: as §1, §2

[9] = system: PBMCs; test: MTT assay, PBMCs (normal); assay type: cell-based; conditions: Homo sapiens, PBMC, PBMCs normal cells, 72 h, 95% confidence intervals in parentheses
Excerpt: Human PBMCs were isolated from the leucocyte buffy coat obtained from the blood of healthy and nonsmoking volunteers (aged 18–65). Leukocyte buffy coats were collected from Blood Bank in Lodz, Poland. The use of the leukocyte buffy coat in the investigation of the effect of novel tricyclic pyrazolo[4,3-e][1,2,4]triazine derivatives on human PBMCs was approved by the Bioethics Committee for Scientific Investigation, University of Lodz (agreement no. 8/KBBN-UŁ/I//2019). Isolation of PBMCs was performed by density gradient of Lymphosep (25 min, 1400 rpm, RT). PBMCs were cultured in RPMI-1640 medium, supplemented with 1% (v/v) penicillin–streptomycin solution, 1.5% PHA and 10% (v/v) FBS.
as §1
(§3) The suspension of 8–10 × 10^3 (adherent cells) and 8 × 10^4 (PBMCs) cells in 200 µL and 100 µL medium, respectively, was transferred to each well of 96-well microplate. Plates were incubated for 24 h in controlled conditions (5% CO2; 37 °C) to ensure cell growth. Subsequently, the medium was replaced, and the cells were exposed to tested compounds in a wide range of concentrations (0.1–6 µM). Before investigated compounds were diluted in a culture medium, they had been diluted in DMSO in the final concentration of <0.5% v/v, which were not toxic to the cells. […] Absorbance was measured via spectrophotometer (microplate reader Power Wave XS BioTek Instruments, Inc., Winooski, VT, USA) at 570 nm. […]

[10] = system: PC-3; test: Comet assay, alkaline version (pH > 13), PC-3; assay type: cell-based, human; conditions: PC-3, 24 h, range over 0.5, 1 and 2 × IC50
Experimental: (§4) The alkaline version (pH > 13), as well as the neutral version (pH 9.0) of the comet assay, was performed on cancer cell lines according to the procedures described by Singh et al. with modifications. 12-well plates were seeded at a density of 1.2–1.5 × 10^5 cells per well. […] In addition, negative and positive controls (cells treated only with DMSO at <0.5% and with bleomycin at 20 µM, respectively) were included.
(§5) Following a 24 h incubation (5% CO2; 37 °C), the cells were trypsinized and transferred to Eppendorf tubes and centrifuged (10 min, 1400 rpm, 4 °C). The obtained pellet was resuspended in 100 µL of fresh PBS, mixed with 0.75% LMP agarose dissolved in PBS, and embedded onto microscope slides, previously precoated with 0.5% NMP agarose. The Trypan Blue dye exclusion test was used to determine the number of viable cells present in a cell suspension. […] The slides after agarose solidification were placed in a fresh, cold lysis buffer (pH 10, 1% Triton X-100, 2.5 M NaCl, 100 mM EDTA, 10 mM Tris) for 1 h (4 °C, in dark), which subsequently was replaced by electrophoretic solution (1 mM EDTA, 300 mM NaOH, pH > 13) for another 40 min. Afterward, electrophoresis was performed (25 min, 0.73 V/cm, 300 mA, 4 °C, in dark). Subsequently, the slides were neutralized with 0.4 M Tris, pH 7.5 (20 min, 4 °C, in dark) and washed 3× in distilled water. Eventually, slides were drained, stained with DAPI (1 μg/mL) for at least 1 h (4 °C), and analyzed with fluorescence microscope (Olympus, Tokyo, Japan).
(§6) A total number of 50 randomly selected images were analyzed in the commercially available software CaspLab. Two parallel experiments with aliquots of the same sample of cells were performed for a total of 100 cells. From the available parameters, the percentage of DNA in comet tail was selected as the most appropriate as being negatively associated with the level of DNA cross-links, as well as positively correlated with alkali-labile sites and the amount of DNA single-strand breaks (SSBs) and double-strand breaks (DSBs) (alkaline version of the comet assay). […]

[11] = system: HeLa, HCT 116, PC-3, BxPC-3, Hs27, PBMCs; test: MTT assay, summary over all tested cells; assay type: cell-based; conditions: Homo sapiens; HCT 116, HeLa, PC-3 and BxPC-3, MTT; read-out: IC50 range in cancer cell lines
Excerpt: as §1, §3

[12] = system: HT-29 and DLD-1 cancer cells; set-up: method as in PMID 26089833; conditions: mice challenged with HT-29 and DLD-1 cancer cells, two weeks of treatment; cited from earlier work
[13] = system: tumor development; set-up: method as in PMID 31371419; conditions: zebrafish embryo xenograft model; cited from earlier work
[14] = system: HCT 116; test: Comet assay, alkaline version (pH > 13), HCT 116; assay type: cell-based, human; conditions: HCT 116, 24 h; for Alkaline Version, median percentage of DNA in comet tail: compound at 2 × IC50, interquartile range in parentheses
Experimental: as §4, §5, §6

[15] = system: HCT 116; test: Immunocytochemical detection of γ-H2AX; assay type: cell-based, human; conditions: HCT 116, 24 h, highest concentration used (2 × IC50)
Experimental: Immunocytochemical detection of the phosphorylated form of the histone protein component H2AX (γ-H2AX) is a well-known approach to estimate DNA DSB levels in both in vitro [47, 53, 66] and in vivo [67, 68] studies. HCT 116 cells were grown on coverslips in 12-well plates at a density of 1.2 × 10^5 per well for 24 h (5% CO2; 37 °C). Subsequently, the cells were exposed to investigated compounds in two different concentrations (IC50 and 2 × IC50 values with respect to MTT results), by replacing the medium with an appropriate compound concentration. Negative control (cells treated only with DMSO at <0.5%) was also included.
The cells were fixed with 4% paraformaldehyde (10 min), washed twice with PBS, and permeabilized with 0.5% (v/v) Triton X-100/PBS solution (10 min). Afterward, the cells were incubated with a blocking solution containing 1.5% goat serum, and 0.1% Triton in PBS for 10 min and incubated with the primary antibody, anti-gamma-H2AX (phospho-Ser139) (Abcam, Cambridge, UK; 1:100) for 1 h. […]
The slides were examined using a fluorescence microscope (Olympus) at 40× magnification. […] A total number of 150 randomly selected cells from digital images per sample were measured. The data were exported and analyzed in GraphPad Prism 8.0 software system (GraphPad Prism Software Inc., San Diego, CA, USA).

[16] = system: PC-3; conditions: cited from earlier work
[17] = system: HeLa; set-up: method as in doi:10.26650/IstanbulJPharm.2020.0039, PMID 34200051; conditions: cited from earlier work

| SMILES | IC50 [2] | IC50 [3] | IC50 [4] | IC50 [5] | IC50 [6] | IC50 [7] | IC50 [8] | IC50 [9] | % of DNA in comet tail, alkaline comet assay [10] | IC50 [16] | other results |
| --- | --- | --- | --- | --- | --- | --- | --- | --- | --- | --- | --- |
| O=c1[nH]cc(F)c(=O)[nH]1 [5-fluorouracil] | 3200 nM |  |  |  |  |  |  |  |  |  | IC50 [1]: 96100 nM |
| Cc1nn(-c2ccc(S(=O)(=O)NC(CO)CC(C)C)cc2)c2nn3nnnc3nc12 (centres unmarked) [MM124, reference compound] |  | 160 to 1540 nM |  |  |  |  |  |  |  |  |  |
| COC(=O)C1CC(O)CN1S(=O)(=O)c1ccc(-n2nc(C)c3nc4nnnn4nc32)cc1 (centres unmarked) [MM129] |  | 3100 to 3900 nM | 900 nM | 600 nM | 360 nM | 260 nM | 1150 nM | 1110 nM | 7.4–21.8% |  | IC50 [11]: 130 to 900 nM; tumor mass and volume [12]: significant reduction in tumor mass and volume; tumor development [13]: inhibition of tumor development |
| Cc1nn(-c2ccc(S(=O)(=O)N[C@@H](C)CO)cc2)c2nn3nnnc3nc12 [MM130] |  |  | 590 nM | 440 nM | 220 nM | 170 nM | 810 nM | 770 nM | 7.4–21.8% |  | Alkaline Version, median percentage of DNA in comet tail [14]: 25.6%; median of the number of γ-H2AX foci per nucleus [15]: 12 foci per nucleus; melting point: 197 to 202 °C |
| Cc1nn(-c2ccc(S(=O)(=O)N[C@H](C)CO)cc2)c2nn3nnnc3nc12 [MM131] |  | 3100 to 3900 nM | 410 nM | 390 nM | 170 nM | 130 nM | 620 nM | 620 nM | 19.5–40.3% |  | Alkaline Version, median percentage of DNA in comet tail [14]: 38.8%; % of DNA in comet tail, alkaline comet assay ([14]; range over 0.5, 1 and 2 × IC50): 8–38.8%; median of the number of γ-H2AX foci per nucleus [15]: 15 foci per nucleus; IC50 [11]: 130 to 900 nM |
| Cc1nn(-c2ccc(S(=O)(=O)N3CCN(C)CC3)cc2)c2nn3nnnc3nc12 [MM137, reference compound] |  | 160 to 1540 nM |  |  |  |  |  |  |  |  |  |
| N.N.[Cl][Pt][Cl] [cisplatin] | 9000 nM |  |  |  |  |  |  |  |  | 9000 nM | IC50 [17]: 12300 nM |
| CCc1c2c(nc3ccc(OC(=O)N4CCC(N5CCCCC5)CC4)cc13)-c1cc3c(c(=O)n1C2)COC(=O)[C@]3(O)CC [irinotecan] | 2600 nM |  |  |  |  |  |  |  |  | 2100 nM |  |
| O=C1[O][Pt]2([NH][C@@H]3CCCC[C@H]3[NH]2)[O]C1=O [oxaliplatin] | 72000 nM |  |  |  |  |  |  |  |  | 100000 nM |  |
